{"source": "patent US20240307365A1", "about": "“Pharmaceutical Composition for Preventing or Treating Systemic Sclerosis” (Daewoong Pharmaceutical Co., Ltd., priority 2021, published 2024)", "key": {"[1]": {"test_system": "systemic sclerosis-associated interstitial lung disease (SSc-ILD) mouse model administered with BLM", "assay": "SSc-ILD bleomycin osmotic pump mouse model: collagen content (hydroxyproline) in skin tissue", "format": "in vivo, C57BL/6 mice", "settings": "for hydroxyproline value, ratio compared to a normal group: skin tissue, individual animals 1-9", "text": "(§1) Seven-week-old C57BL/6 mice were obtained and acclimatized indoors for 5 days or more. For the systemic sclerosis-related interstitial lung disease model, an osmotic pump injection model was designed. For that reason, if it is not modeling using an osmotic pump, it is a model in which BLM should be injected subcutaneously into the back of the test animal every day for 4 weeks, and this is because these tests can cause very extreme pain at the site of administration.\n(§2) The incision site was sutured, an osmotic pump was inserted, bleomycin was administered for 1 week, and then the osmotic pump was removed on the 10th day. It was confirmed that systemic sclerosis-associated interstitial lung disease was induced in a mouse model administered with BLM for 1 week, and specific experimental groups are shown in Table 1 below.\nAn attempt was made to measuring the amount of hydroxyproline in the mouse and thus indirectly measure the collagen content. Analysis was performed using INSOLUBLE Collagen Assay (Biocolor, S2000), and the details are as follows.\nFirst, 10 mg of frozen skin tissue was pulverized with 100 ul of fragmentation reagent. 100 ul of 37% HCl was added and incubated at 65° C. for 3 hours. The contents of the tube were shaken at 30 minute intervals to aid tissue disintegration. Centrifugation was performed at 12,000 rpm for 10 minutes. After centrifugation, it was transferred to a 1.5 ml tube. 50 ul was taken from a sample between 10 and 100 ul, distilled water was added, and the sample was prepared so as to match with 100 ul.\n1 ml of dye was added to 100 ul of the prepared sample, and mixed for 30 minutes. The mixture was centrifuged at 12,000 rpm for 10 minutes, and then transferred to a new tube. The dye was removed with 750 ul of ice-cold acid-salt wash reagent. After centrifugation at 12,000 rpm for 10 minutes, it was transferred to a new tube. The tube was mixed with the collagen-binding dye using a vortex mixer, and gollagen binding dye was dissolved within 10 minutes to complete the measurement preparation (measurement should be completed within 2˜3 hours). The tube cap was closed until it was ready to measure absorbance.\n200 ul of each sample was transferred to an individual well of a 96 micro-well plate, and the absorbance was measured at 560 nm."}, "[2]": {"test_system": "systemic sclerosis-associated interstitial lung disease (SSc-ILD) mouse model administered with BLM", "assay": "SSc-ILD bleomycin osmotic pump mouse model: skin thickness (H&E, MT stain)", "format": "in vivo, C57BL/6 mice", "settings": "day 28; for Skin thickness: individual animals 1-9", "text": "as §1, §2\nOn the day 28, skin tissues were extracted from mice and subjected to H&E and Mansson's Trichrome (MT stain). The skin thickness of 10 sites was measured randomly through the image of the photograph in which stain progressed (progressed at a minimum interval of 200˜300 um). The entire area of the photograph was measured as evenly as possible, and the areas where the stain tissue was damaged were excluded from the measurement."}, "[3]": {"test_system": "systemic sclerosis-associated interstitial lung disease (SSc-ILD) mouse model administered with BLM", "assay": "SSc-ILD bleomycin osmotic pump mouse model: lung weight", "format": "in vivo, C57BL/6 mice", "design": "Lung weight: unit not given here", "settings": "for Lung weight: individual animals 1-9, unit not given", "text": "as §1, §2"}, "[4]": {"test_system": "systemic sclerosis-associated interstitial lung disease (SSc-ILD) mouse model administered with BLM", "assay": "SSc-ILD bleomycin osmotic pump mouse model: body weight (%)", "format": "in vivo, C57BL/6 mice", "settings": "for Body weight (%) change: individual animals 1-9", "text": "as §1, §2"}, "[5]": {"test_system": "mouse model of systemic scleroderma skin organoid transplantation", "assay": "Skin hardening alleviation in 3D skin organoid transplantation mouse model (skin thickness, fibrosis factors by immunochemical staining)", "format": "in vivo, SCID mice", "settings": "daily for 2 weeks", "text": "The previously constructed 3D skin organoid derived from the systemic scleroderma patient iPSC was transplanted into SCID mice to construct a mouse model of systemic scleroderma. The mouse skin tissue was cut into 1×2 cm, and then 3D skin organoid skin tissue was sutured to the mouse skin. For a skin transplantation method, it was transplanted to mice or the like using a tie-over dressing method used clinically. After placing a gauze on the suture site, it was tied with a suture and dressed with a band.\nThe active ingredient was subcutaneously administered at a dose of 3 mg/kg and 10 mg/kg daily for 2 weeks to a mouse model of systemic scleroderma skin organoid transplantation. For the negative control group (NC), a physiological saline was administered to a normal skin tissue, and for the positive control group (SSc), a physiological saline was administered to a systemic scleroderma skin organoid transplanted skin tissue. The skin thickness, which is the primary evaluation index of systemic scleroderma, was measured through immunochemical staining, and the results are shown in FIG. 2.\nTo confirm whether the fibrosis factor is reduced in systemic scleroderma skin tissue by the active ingredient, immunochemical staining was performed and the results are shown in FIG. 3."}, "[6]": {"test_system": "systemic sclerosis-associated interstitial lung disease (SSc-ILD) mouse model administered with BLM", "assay": "SSc-ILD bleomycin osmotic pump mouse model: lung function evaluation (SpO2)", "format": "in vivo, C57BL/6 mice", "text": "as §1, §2\nThis lung function evaluation is an experiment to show the therapeutic effect of this active substance in patients with systemic sclerosis-associated interstitial lung diseases, and is the most direct and important evaluation index that has the greatest influence on the symptoms and quality of life of patients with systemic sclerosis-associated interstitial lung diseases, unlike the general pulmonary fibrosis ameliorating effect. This is an experiment that can most directly show the effect of improving lung function in an animal model of systemic sclerosis-associated interstitial lung disease by measuring the oxygen concentration in the body.\nOn the 21st day, it was measured with a SpO2 measuring device (Berry, Veterinary Pulse Oximeter) via the abdominal side of the mouse, and the results are shown in Table 5 and FIG. 3."}, "[7]": {"test_system": "3D skin organoid prepared using iPSC-derived fibroblasts from patients with systemic dermatosis", "assay": "Skin hardening alleviation in 3D skin organoid model (thickness by H&E staining)", "format": "cell-based", "settings": "1 μM in DMSO solution, control DMSO only (FIG. 1)", "description": "A 3D skin organoid was prepared using iPSC-derived fibroblasts from patients with systemic dermatosis according to the method described in the literature (Lancet. 2009 Nov. 21;374(9703):1745-53). When 1 μM of active ingredient was treated with DMSO solution, it was confirmed through H&E immunochemical staining that the thickness of the 3D skin organoid was reduced (FIG. 1). The control group was treated with only DMSO."}, "[8]": {"settings": "3 and 10 mg/kg subcutaneous, immunochemical staining, *p<0.05, ***p<0.001 (FIG. 3)"}}, "note": "Values joined by “and” are separate entries in the source; they are usually repeats but may differ in a detail not shown here. Equal entries are not always repeated.", "data": [{"smiles": "COC(=O)c1ccc2c(c1)NC(=O)/C2=C(\\Nc1ccc(N(C)C(=O)CN2CCN(C)CC2)cc1)c1ccccc1", "note": "[NIN, Nintedanib, reference compound]", "values": [{"measurement": "hydroxyproline value, ratio compared to a normal group", "setting": "[1]; nintedanib 60 mg/kg oral", "value": "1.34 and 1.83 and 1.63 and 1.53 and 1.08 and 1.37 and 1.43 and 1.65 and 1.45"}, {"measurement": "Skin thickness", "setting": "[2]; nintedanib 60 mg/kg oral", "value": "675.558 μm and 623.019 μm and 651.831 μm and 660.809 μm and 649.479 μm and 620.302 μm and 651.572 μm and 856.355 μm and 664.973 μm"}, {"measurement": "Lung weight", "setting": "[3]; nintedanib 60 mg/kg oral", "value": "0.96 and 0.99 (2×) and 1.04 and 0.95 and 1.01 and 0.98 and 1.16 and 0.89"}, {"measurement": "Body weight (%) change", "setting": "[4]; nintedanib 60 mg/kg oral", "value": "−0.45% and 0.58% and 8.79% and 0.44% and −2.94% and 2.46% and 4.14% and 1.78% and 4.49%"}]}, {"smiles": "O[C@H]1CCCN[C@@H]1CCCn1cnc2c(Cl)c(Cl)ccc21", "note": "[Active ingredient]", "values": [{"measurement": "thickness of the skin tissue", "setting": "[5]; 3 mg/kg and 10 mg/kg subcutaneous, ***p<0.001 (FIG. 2)", "value": "significantly reduced"}, {"measurement": "fibrotic factor Collagen I in skin tissue", "setting": "[5]; [8]", "value": "significantly reduced"}, {"measurement": "fibrotic factor Collagen III in skin tissue", "setting": "[5]; [8]", "value": "significantly reduced"}, {"measurement": "fibrotic factor aSMA in skin tissue", "setting": "[5]; [8]", "value": "significantly reduced"}, {"measurement": "hydroxyproline value, ratio compared to a normal group", "setting": "[1]; 3 mg/kg oral", "value": "1.51 (2×) and 1.96 and 1.66 and 1.94 and 1.85 and 1.74 and 1.57 and 2.01"}, {"measurement": "hydroxyproline value, ratio compared to a normal group", "setting": "[1]; 10 mg/kg oral", "value": "2.27 and 2.26 (2×) and 1.70 and 1.93 and 1.57 and 2.16 and 1.82 and 2.10"}, {"measurement": "amount of hydroxyproline in the skin, significance", "setting": "[1]; 30 mg/kg oral, P<0.001 or less", "value": "very significant result"}, {"measurement": "hydroxyproline value, ratio compared to a normal group", "setting": "[1]; 30 mg/kg oral", "value": "1.70 and 1.48 and 1.81 and 2.04 and 2.09 (2×) and 1.75 and 1.77 and 1.28"}, {"measurement": "amount of hydroxyproline in the skin, significance", "setting": "[1]; from 10 mg/kg oral", "value": "significant results"}, {"measurement": "density of collagen in the skin (MT stain)", "setting": "[2]; 3 mg/kg oral", "value": "tendency to decrease"}, {"measurement": "skin thickness, significance", "setting": "[2]; 3 mg/kg oral", "value": "did not significantly decrease"}, {"measurement": "Skin thickness", "setting": "[2]; 3 mg/kg oral", "value": "809.254 μm and 771.562 μm and 778.660 μm and 688.725 μm and 759.037 μm and 677.319 μm and 744.986 μm and 904.141 μm and 641.841 μm"}, {"measurement": "skin thickness improvement effect compared with 60 mg/kg of nintedanib", "setting": "[2]; 10 mg/kg oral", "value": "superior"}, {"measurement": "Skin thickness", "setting": "[2]; 10 mg/kg oral", "value": "526.170 μm and 521.027 μm and 425.415 μm and 456.862 μm and 672.616 μm and 593.826 μm and 601.558 μm and 809.106 μm and 708.308 μm"}, {"measurement": "skin thickness, significance", "setting": "[2]; 30 mg/kg oral, P<0.0001 or less", "value": "very significant results"}, {"measurement": "Skin thickness", "setting": "[2]; 30 mg/kg oral", "value": "475.515 μm and 412.271 μm and 525.311 μm and 593.963 μm and 526.388 μm and 443.336 μm and 601.558 μm and 558.530 μm and 479.961 μm"}, {"measurement": "collagen density in the skin (MT stain)", "setting": "[2]; active ingredient administered as a whole", "value": "decreased"}, {"measurement": "skin thickness, significance", "setting": "[2]; from 10 mg/kg oral", "value": "significant results"}, {"measurement": "Lung weight", "setting": "[3]; 3 mg/kg oral", "value": "1.01 and 1.14 (2×) and 1.08 (2×) and 0.98 (2×) and 1.15 and 0.92"}, {"measurement": "Lung weight", "setting": "[3]; 10 mg/kg oral", "value": "0.98 and 1.22 and 1.14 and 1.12 and 0.95 and 1.16 and 0.99 and 0.93 and 1.08"}, {"measurement": "change in lung weight corrected by body weight, significance", "setting": "[3]; 30 mg/kg oral", "value": "significance increased to p<0.01"}, {"measurement": "Lung weight", "setting": "[3]; 30 mg/kg oral", "value": "1.10 and 0.99 and 0.90 and 0.98 (2×) and 1.03 and 0.94 and 1.09 and 0.97"}, {"measurement": "change in lung weight corrected by body weight, significance", "setting": "[3]; from 10 mg/kg oral", "value": "showed a significance"}, {"measurement": "change in lung weight, significance", "setting": "[3]; only at 30 mg/kg oral", "value": "significant tendency"}, {"measurement": "oxygen saturation recovery rate versus nintedanib (60 mg/kg) group", "setting": "[6]; 30 mg/kg oral, day 21", "value": "comparable to that of nintedanib"}, {"measurement": "SpO2 (oxygen saturation) compared with the vehicle", "setting": "[6]; 30 mg/kg oral, day 21, p<0.001", "value": "higher oxygen saturation"}, {"measurement": "SpO2 (oxygen saturation), significance", "setting": "[6]; from 10 mg/kg oral, day 21 (FIG. 7)", "value": "significant results"}, {"measurement": "Body weight (%) change", "setting": "[4]; 3 mg/kg oral, 28 days", "value": "−2.45% and −2.14% and 1.34% and −0.33% and −1.93% and 8.65% and 3.02% and −0.36% and 1.07%"}, {"measurement": "Body weight (%) change", "setting": "[4]; 10 mg/kg oral, 28 days", "value": "4.62% and 2.54% and 1.96% and −4.1% and −2.48% and 0.48% and 0.14% and 4.88% and 4.78%"}, {"measurement": "Body weight (%) change", "setting": "[4]; 30 mg/kg oral, 28 days", "value": "12.09% and 7.78% and 2.13% and 2.34% and 1.45% and 9.52% and 5.35% and −2.86% and 7.57%"}, {"measurement": "body weight compared to the vehicle", "setting": "[4]; 30 mg/kg oral, 28 days, p<0.01", "value": "significantly increased"}, {"measurement": "changes in body weight, significance", "setting": "[4]; from 3 mg/kg oral, 28 days", "value": "significant results"}, {"measurement": "thickness of the 3D skin organoid", "setting": "[7]", "value": "reduced"}]}]}
